{"source": "patent US20140271766A1", "about": "(priority 2013, published 2014)", "key": {"[1]": {"conditions": "buprenorphine, individual patient"}, "[2]": {"conditions": "human, in vivo"}, "[3]": {"conditions": "human, in vivo", "remark": "listed apart in the source"}}, "note": "Values joined by “and” are separate entries in the source; they are usually repeats but may differ in a detail not shown here. Identical values can stand only once. Like-named read-outs stand apart in the source and are kept apart here. Marks after values point to notes of the source that are not given here."}
{"smiles": "CO[C@@]12CC[C@@]3(C[C@@H]1[C@](C)(O)C(C)(C)C)[C@H]1Cc4ccc(O)c5c4[C@@]3(CCN1CC1CC1)[C@H]2O5", "note": "[buprenorphine]", "values": [{"measurement": "Model predicted concentration at removal", "setting": "[1]; 2 implants", "result": "263 pg/ml and 342 pg/ml (2×) and 252 pg/ml and 447 pg/ml and 338 pg/ml"}, {"measurement": "Time from implant to reaching 2x last concentration", "setting": "[1]; 2 implants", "result": 180, "unit": "h"}, {"measurement": "α-Half Life", "setting": "[1]; 2 implants", "result": "115^b hours"}, {"measurement": "β-Half Life", "setting": "[1]; 2 implants", "result": "3578^bc hours"}, {"measurement": "γ-Half life", "setting": "[1]; 2 implants", "result": 120, "unit": "weeks"}, {"measurement": "Model predicted concentration at removal", "setting": "[1]; 4 implants", "result": "6.69 pg/mL and 5.33 pg/mL and 5.76 pg/mL and 5.01 pg/mL and 7.78 pg/mL"}, {"measurement": "Time from implant to reaching 2x last concentration", "setting": "[1]; 4 implants", "result": "690 h and 710 h"}, {"measurement": "β-Half Life", "setting": "[1]; 4 implants", "result": "12.0 h and 16.0 h and 24.0 h"}, {"measurement": "Renal clearance", "setting": "[2]", "result": 0.0552, "unit": "mL/min"}, {"measurement": "Cave from Day 21 to removal, higher in higher dose group as compared with lower dose group", "setting": "[3]", "result": 93, "unit": "%"}, {"measurement": "Cmax, average, higher in higher dose group as compared with lower dose group", "setting": "[3]", "result": 62, "unit": "%"}, {"measurement": "reduction in buprenorphine concentrations from Day 17 to removal", "setting": "[3]", "result": "≤ 50", "unit": "%"}, {"measurement": "shortest half-life during the plateau phase", "setting": "[3]", "result": 25, "unit": "weeks"}, {"measurement": "time to reach plateau phase of buprenorphine concentrations", "setting": "[3]", "result": "≤ 21", "unit": "days"}]}
